Test results from ChEMBL document CHEMBL1139654, “Antiangiogenic activity of deoxoartemisinin derivatives on chorioallantoic membrane” (Bioorg Med Chem Lett, 2006).

Species on record: Gallus gallus
Assay: Antiangiogenic activity at chorioallantoic membrane of chick embryo at 5 nmol per egg
Format: functional, organism-based
`C[C@H]1[C@@H](CCc2ccc(C(=O)O)cc2)O[C@@H]2O[C@]3(C)CC[C@H]4[C@H](C)CC[C@@H]1[C@@]24OO3` was tested, and the inhibition was 29%. In the case of `C[C@H]1[C@@H](CCNC(=O)CC[C@H]2O[C@@H]3O[C@]4(C)CC[C@H]5[C@H](C)CC[C@@H]([C@H]2C)[C@@]35OO4)O[C@@H]2O[C@]3(C)CC[C@H]4[C@H](C)CC[C@@H]1[C@@]24OO3`, the inhibition is reported as 43%. `CO[C@@H]1[C@H](OC(=O)/C=C/C=C/C=C/C=C/C(=O)O)CC[C@]2(CO2)[C@H]1[C@@]1(C)O[C@@H]1CC=C(C)C` showed an inhibition of 57%. `C[C@H]1[C@@H](CCCOC(=O)CC(=O)OCCC[C@H]2O[C@@H]3O[C@]4(C)CC[C@H]5[C@H](C)CC[C@@H]([C@H]2C)[C@@]35OO4)O[C@@H]2O[C@]3(C)CC[C@H]4[C@H](C)CC[C@@H]1[C@@]24OO3` gave an inhibition of 14%. In the case of `CCS[C@H]1O[C@@H]2O[C@]3(C)CC[C@H]4[C@H](C)CC[C@@H]([C@H]1C)[C@@]24OO3`, the inhibition is reported as 17%. `O=C1CC[C@H](N2C(=O)c3ccccc3C2=O)C(=O)N1` was tested, and the inhibition was 50%. For `C[C@@H]1CC[C@H]2[C@@H](COC[C@H]3CO[C@@H]4O[C@]5(C)CC[C@H]6[C@H](C)CC[C@@H]3[C@@]46OO5)CO[C@@H]3OC4(C)CC[C@@H]1[C@]32OO4` (single isomer, unassigned), the inhibition was 71%. With `C[C@H]1[C@@H](CC[S+]([O-])CC[C@H]2O[C@@H]3O[C@]4(C)CC[C@H]5[C@H](C)CC[C@@H]([C@H]2C)[C@@]35OO4)O[C@@H]2O[C@@]3(C)CC[C@H]4[C@H](C)CC[C@@H]1[C@@]24OO3` the Activity was “Toxic”. For `C[C@@H]1CC[C@H]2[C@@H](CO)CO[C@@H]3O[C@]4(C)CC[C@@H]1[C@]32OO4`, the inhibition was 29%. In the case of `C=C1CO[C@@H]2O[C@]3(C)CC[C@H]4[C@H](C)CC[C@@H]1[C@@]24OO3`, the inhibition is reported as 29%. `C[C@@H]1CC[C@H]2[C@@H](C)C(=O)O[C@@H]3O[C@@]4(C)CC[C@@H]1[C@]32OO4` was tested, and the inhibition was 25%. `C[C@H]1[C@@H](CCN)O[C@@H]2O[C@]3(C)CC[C@H]4[C@H](C)CC[C@@H]1[C@@]24OO3` showed an inhibition of 29%. Work on `C[C@H]1[C@@H](O)O[C@@H]2O[C@@]3(C)CC[C@H]4[C@H](C)CC[C@@H]1[C@@]24OO3` yielded an inhibition of 25%. Work on `C[C@H]1[C@@H](CCCC(=O)O)O[C@@H]2O[C@]3(C)CC[C@H]4[C@H](C)CC[C@@H]1[C@@]24OO3` yielded an inhibition of 50%. `C[C@H]1[C@@H](CCO)O[C@@H]2O[C@]3(C)CC[C@H]4[C@H](C)CC[C@@H]1[C@@]24OO3` was tested, and the inhibition was 63%. `CCCC[C@H]1O[C@@H]2O[C@]3(C)CC[C@H]4[C@H](C)CC[C@@H]([C@H]1C)[C@@]24OO3` was tested, and the inhibition was 63%. `CCO[C@H]1O[C@@H]2O[C@@]3(C)CC[C@H]4[C@H](C)CC[C@@H]([C@H]1C)[C@@]24OO3` showed an inhibition of 29%. Work on `C[C@H]1[C@@H](CCBr)O[C@@H]2O[C@]3(C)CC[C@H]4[C@H](C)CC[C@@H]1[C@@]24OO3` yielded an inhibition of 29%. In the case of `C[C@@H]1CC[C@H]2[C@H](CBr)CO[C@@H]3O[C@]4(C)CC[C@@H]1[C@]32OO4`, the inhibition is reported as 75%. In the case of `C[C@@H]1CC[C@H]2[C@@H](C)CO[C@@H]3O[C@]4(C)CC[C@@H]1[C@]32OO4`, the inhibition is reported as 29%. For `C[C@H]1[C@@H](CCS(=O)(=O)CC[C@H]2O[C@@H]3O[C@]4(C)CC[C@H]5[C@H](C)CC[C@@H]([C@H]2C)[C@@]35OO4)O[C@@H]2O[C@@]3(C)CC[C@H]4[C@H](C)CC[C@@H]1[C@@]24OO3`, the Activity was “Toxic”. `C[C@@H]1CC[C@H]2[C@@H](C(=O)O)CO[C@@H]3O[C@]4(C)CC[C@@H]1[C@]32OO4` was tested, and the inhibition was 20%.
